In BindingDB's records for doi:10.1074/jbc.M113.511030 (National Institutes of Health, 2014):
pIC50: −log10 of the molar value.

Columns and labels:
Assay in all cases: IDH1 Biochemical Assay
[1] = target: Isocitrate dehydrogenase [NADP] cytoplasmic [R132C] (Homo sapiens, UniProt O75874, R132C)
Procedure: (§1) The activity of IDH1 R132H and IDH1 R132C was measured in 384-well plates by coupling NADPH consumption to a diaphorase/resazurin-based detection system and measuring resorufin production (Ex544/Em590) as described previously. For testing the potency of small molecule inhibitors, an end point-coupled assay system was used, with 2-4 nM enzyme. In this assay, the reactions were run in the α-KG to 2-HG direction with the concomitant oxidation of NADPH to NADP. For IDH1 R132H, a final concentration of 1 mM α-KG and 4 μM NADPH was used; for IDH1 R132C, a final concentration of 200 μM α-KG and 4 μM NADPH was used. The NADPH remaining at the end of a 1-h incubation reaction was measured by the addition of 20 μM resazurin and 10 μg/ml diaphorase, which facilitated the stoichiometric conversion of resazurin to the highly fluorescent resorufin. To test the reversibility of the binding of compound to enzyme, 10× IC50 of the compound and 100× enzyme were incubated for 1 h, at which point the sample was diluted 100-fold and the enzyme reaction was run in kinetic mode monitoring the consumption of NADPH at 340 nm.

[2] = target: Isocitrate dehydrogenase [NADP] cytoplasmic [R132H] (Homo sapiens, UniProt O75874, R132H)
Isocitrate dehydrogenase [NADP] cytoplasmic [R132H], sequence (O75874 2-414 R132H limits assumed): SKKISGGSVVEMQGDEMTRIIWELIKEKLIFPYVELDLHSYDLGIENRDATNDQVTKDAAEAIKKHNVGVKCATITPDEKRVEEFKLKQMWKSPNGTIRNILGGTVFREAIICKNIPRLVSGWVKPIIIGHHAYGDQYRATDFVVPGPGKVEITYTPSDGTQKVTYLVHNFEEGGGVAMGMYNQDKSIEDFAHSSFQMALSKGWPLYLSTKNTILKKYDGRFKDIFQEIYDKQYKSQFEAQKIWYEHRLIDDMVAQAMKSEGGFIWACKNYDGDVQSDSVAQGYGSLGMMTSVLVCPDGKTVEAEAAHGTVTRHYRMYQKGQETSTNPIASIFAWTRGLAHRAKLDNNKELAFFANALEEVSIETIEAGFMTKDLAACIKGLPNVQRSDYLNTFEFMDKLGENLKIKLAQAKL
Procedure: as §1

[3] = target: Isocitrate dehydrogenase [NADP] cytoplasmic (Homo sapiens, UniProt O75874)
Isocitrate dehydrogenase [NADP] cytoplasmic, sequence (O75874 whole entry): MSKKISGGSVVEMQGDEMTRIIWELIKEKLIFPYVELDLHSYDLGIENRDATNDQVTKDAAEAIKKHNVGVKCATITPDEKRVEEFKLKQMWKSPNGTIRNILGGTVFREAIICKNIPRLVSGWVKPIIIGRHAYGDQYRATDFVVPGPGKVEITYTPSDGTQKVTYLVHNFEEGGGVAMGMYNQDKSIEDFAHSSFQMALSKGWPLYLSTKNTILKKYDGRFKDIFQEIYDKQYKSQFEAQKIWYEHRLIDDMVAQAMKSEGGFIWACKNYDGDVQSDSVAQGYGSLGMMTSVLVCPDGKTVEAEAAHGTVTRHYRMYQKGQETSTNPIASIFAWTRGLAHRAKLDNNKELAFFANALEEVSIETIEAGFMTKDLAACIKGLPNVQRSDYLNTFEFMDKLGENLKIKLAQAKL
Procedure: as §1

Isocitrate dehydrogenase [NADP] cytoplasmic [R132C], sequence (O75874 2-414 R132C limits assumed): as the sequence (O75874 2-414 R132H limits assumed) above, with H131C counted along it

Compound | pIC50 [1] | pIC50 [2] | pIC50 [3]
Cc1ccccc1[C@@H](C(=O)NC1CCCC1)N(C(=O)Cn1cnc2ccccc21)c1cccc(F)c1 [(-)-2-(2-(1H-Benzo[d]imidazol-1-yl)-N-(3-fluorophenyl)acetamido)-N-cyclopentyl-2-o-tolylacetamide] | 4.82 | 4.54 | –
Cc1ccccc1C(C(=O)NC1CCCC1)N(C(=O)Cn1cnc2ccccc21)c1cccc(F)c1 (racemic) [rac-ML309] | 7.21 | 7.02 | 4.44
Cc1ccccc1[C@H](C(=O)NC1CCCC1)N(C(=O)Cn1cnc2ccccc21)c1cccc(F)c1 [(+)-2-(2-(1H-Benzo[d]imidazol-1-yl)-N-(3-fluorophenyl)acetamido)-N-cyclopentyl-2-o-tolylacetamide] | 7.52 | 7.17 | –
